Source: US10292986B2, “Methods for treating epithelian mesenchymal transition related diseases” (THE BOARD OF REGENTS OF THE UNIVERSITY OF TEXAS SYSTEM, priority 2015, dated 2019)

Key:
[1] = cited from earlier work
hSAECs [2] = assay: TGFβ-induced EMT gene expression in hSAECs by Q-RT-PCR; type: cell-based, human
Description: (§1) hSAECs culture and induction of the EMT transformation. An immortalized human small airway epithelial cell (hSAEC) line established by infecting primary hSAECs with human telomerase (hTERT) and cyclin-dependent kinase (CDK)-4 retrovirus constructs was obtained from John Minna, UTSW (Ramirez et al., 2004, Cancer. Res. 64:9027-34). The immortalized hSAECs were grown in SAGM small airway epithelial cell growth medium (Lonza, Walkersville, MD) in a humidified 5% CO2 atmosphere. For induction of the EMT, hSAECs were TGFIβ-stimulated for 15 d (10 ng/ml, PeproTech, Rocky Hill, NJ). The small-molecule IKK inhibitor BMS345541 was purchased from Sigma Aldrich and used at 10 μM (Burke et al., 2003, J. Biol. Chem. 278:1450-56).
(§2) Quantitative real-time reverse transcription-PCR (Q-RT-PCR). Total RNA was extracted using acid guanidinium phenol extraction (Tri Reagent; Sigma). For gene expression analyses, 1 μg of RNA was reverse-transcribed using SuperScript III in a 20-μl reaction mixture. The rest of the procedures were as described previously (Brasier et al., 2011, J. Virol. 85:11752-69). The forward and reverse gene-specific Q-RT-PCR primers are listed in Table 1; relative changes in gene expression were quantified using the ΔΔCT method.

[3] = test system: 5′ NFκB site of SNAI1, ZEB1, IL-6, and VIM promoters; assay: XChIP / Q-gPCR recruitment of transcriptional elongation complex to EMT gene promoters in hSAECs; type: cell-based, human
Description: Dual cross-link chromatin immunoprecipitation (XChIP). […] Protein-protein cross-linking was first performed with disuccinimidyl glutarate (2mM, Pierce), followed by protein-DNA cross-linking with formaldehyde. […] Immunoprecipitates were collected with 40 μL protein A magnetic beads (Dynal Inc.), washed, and eluted in 250 μL elution buffer for 15 min at room temperature. Samples were de-cross-linked in 0.2 M NaCl at 65 ° C. for 2 h. The precipitated DNA was phenol/chloroform-extracted, precipitated with 100% ethanol, and dried.
Quantitative real time genomic PCR (Q-gPCR). Gene enrichment in XChIP was determined by Q-gPCR using region-specific PCR primers (Table 2). Standard curves were generated using a dilution series of genomic DNA (from 1 ng to 100 ng) for each primer pair. The fold change of DNA in each immunoprecipitate was determined by normalizing the absolute amount to the input DNA reference and calculating the fold change relative to that amount in unstimulated cells.

Brd4 [4] = target: T1, Brd4 (Homo sapiens, UniProt O60885); details: chronic treatment; cited from earlier work
C57BL6/J mice [5] = assay: TGFβ-induced pulmonary fibrosis in mice, lung Q-RT-PCR of fibrotic program; type: in vivo; details: JQ1 i.p., repetitive TGFβ stimulation
Description: as §2
TGFβ-induced pulmonary fibrosis in mice. Male C57BL6/J mice aged 15 weeks were purchased from The Jackson Laboratory (Bar Harbor, Me.) and housed under pathogen-free conditions with food and water ad libitum. Mice were given multiple challenges with 1 μg/mouse of TGFβ every other day for a total of 15 TGFβ treatments. Meanwhile, mice were pre-treated with or without JQ1 (50 mg/kg body weight, i.p.) before TGFβ administration. Ten days after the last TGFβ treatment, bronchoalveolar lavages were obtained for quantifying innate immune cells and measuring cytokine and chemokine secretion; the mice were sacrificed and lung tissues taken for RNA extraction and fixed for histological examination. Whole lungs were inflated under 25 cm H2O pressure with 10% (v/v) neutral buffered formalin through the tracheal cannula and immersed in formalin for at least 24 hours. […]

hSAECs [6] = assay: TGFβ-induced type II EMT in hSAECs, confocal immunofluorescence microscopy; type: cell-based, human
Description: as §1
Immunostaining and Confocal Immunofluorescence Microscopy. hSAECs were incubated±TGFβ (10 ng/mL) for 15 days, re-plated on glass cover slips pretreated with rat tail collagen (Roche Applied Sciences), and fixed with 4% paraformaldehyde in PBS. Afterwards, the fixed cells were stained with Alexa Fluor® 568 phalloidin (Life Technologies) for cytoplasmic distribution of F-actin and also counterstained with 4′, 6-diamidino-2-phenylindole (DAPI) for nuclear staining. The cells were visualized with a Nikon fluorescence confocal microscope at a magnification of 63×.
For immunofluorescence staining, hSAECs were plated on rat tail collagen-treated cover glasses and stimulated for the indicated times. The cells were fixed with 4% paraformaldehyde in PBS and incubated with 0.1 m ammonium chloride for 10 min. Cells were permeabilized with 0.5% Triton-100, followed by incubation in blocking buffer (5% goat serum, 0.1% IGEPAL CA-630, 0.05% NaN3, and 1% BSA) and incubated with anti-SNAIL1, anti-E-Cadherin, and anti-vimentin antibodies (Abs; Abcam, Santa Cruz, Calif.) incubation buffer (0.1% IGEPAL CA-630, 0.05% NaN3, and 2% BSA) overnight at 4 ° C. After washing, cells were stained with Alexa Fluor 488-conjugated goat anti-rabbit IgG (Life Technologies) in incubation buffer for 1 h, then visualized with a Nikon fluorescence confocal microscope, magnification 63×.

Brd4 [7] = target: T1, Brd4; details: cited from earlier work
C57BL6/J mice [8] = assay: TGFβ-induced pulmonary fibrosis in mice, histology and Ashcroft scoring; type: in vivo
Description: TGFβ-induced pulmonary fibrosis in mice. Male C57BL6/J mice aged 15 weeks were purchased from The Jackson Laboratory (Bar Harbor, Me.) and housed under pathogen-free conditions with food and water ad libitum. Mice were given multiple challenges with 1 μg/mouse of TGFβ every other day for a total of 15 TGFβ treatments. Meanwhile, mice were pre-treated with or without JQ1 (50 mg/kg body weight, i.p.) before TGFβ administration. Ten days after the last TGFβ treatment, bronchoalveolar lavages were obtained for quantifying innate immune cells and measuring cytokine and chemokine secretion; the mice were sacrificed and lung tissues taken for RNA extraction and fixed for histological examination. Whole lungs were inflated under 25 cm H2O pressure with 10% (v/v) neutral buffered formalin through the tracheal cannula and immersed in formalin for at least 24 hours. After being processed into paraffin blocks, the lungs were cut into 5-μm sections and stained either with Masson Trichrome or H&E to assess fibrotic changes in the lungs.
Assessment of levels of pulmonary fibrosis. Pulmonary fibrosis was graded using the Ashcroft scoring method as described (Hubner et al., 2008, Biotechniques. 44:507). In brief, to determine the fibrosis histopathology score for the lung of each mouse, the entire left and right longitudinal lung sections were scored separately (score range, 0 to 9) at ×100 magnification, and the scores were combined (total score range, 0 to 18). […] were intermediate grades assigned on the basis of the predominant histology changes if features described for two distinct grades (as described) were present in the section, to account for the progressive nature of the fibrotic lesion.

GFP-Brd4 = details: cited from earlier work
[9] = JQ1 10 μM, TGFβ 10 ng/mL, 15 d time course
[10] = JQ1 10 μM, TGFβ 10 ng/mL 15 d, hSAECs
[11] = JQ1 i.p. (100 mg/kg in FIG. 11 legend, 50 mg/kg in methods), repetitive intranasal TGFβ 1 μg/mouse
[12] = ± BMS-345541 10 μM, TGFβ 0 or 15 d

Structure (SMILES): CCC(=O)O[C@]1(C(=O)SCF)[C@H](C)C[C@H]2[C@@H]3C[C@H](F)C4=CC(=O)C=C[C@]4(C)[C@@]3(F)[C@@H](O)C[C@@]21C [Fluticasone propionate]
- solubility in 95% ethanol ([1]; 95% ethanol): slightly soluble
- solubility in dimethyl sulfoxide ([1]; dimethyl sulfoxide): freely soluble
- solubility in dimethylformamide ([1]; dimethylformamide): freely soluble
- solubility in methanol ([1]; methanol): slightly soluble
- solubility in water ([1]; water): practically insoluble

Structure (SMILES): Cc1sc2c(c1C)C(c1ccc(Cl)cc1)=NC(CC(=O)OC(C)(C)C)c1nnc(C)n1-2 (centres unmarked) [JQ1]
- TGFβ-induced enhanced mesenchymal gene expression (hSAECs [2]; BRD4 inhibitor JQ1, hSAECs): significantly inhibited
- TGFβ-induced EMT gene expression in hSAECs (hSAECs [2]; JQ1 10 μM ± TGFβ 10 ng/mL 15 d, FIG. 9B): blocks
- CDH1 expression (mRNA) (hSAECs [2]; JQ1 10 μM, TGFβ 10 ng/mL, 15 d, not to levels seen in normal hSAECs): partially maintained
- TGFβ-induced expression of FN1 mRNA (hSAECs [2]; [9]): significantly blocked
- TGFβ-induced expression of IL-6 mRNA (hSAECs [2]; [9]): significantly blocked
- TGFβ-induced expression of SNAI1 mRNA (hSAECs [2]; [9]): significantly blocked
- TGFβ-induced expression of VIM mRNA (hSAECs [2]; [9]): significantly blocked
- TGFβ-induced expression of ZEB1 mRNA (hSAECs [2]; [9]): significantly blocked
- CDK9 recruitment to SNAI1 ([3]; ± JQ1, TGFβ 0 or 15 days): significantly disrupted
- RelA recruitment to SNAI1 ([3]; ± JQ1, TGFβ 0 or 15 days): significantly disrupted
- TGFβ-induced recruitment of BRD4 to the 5′NFκB site of SNAI1 ([3]; ± JQ1, TGFβ 0 or 15 days): significantly attenuated
- phospho-Ser 2 CTD RNA Pol II recruitment to SNAI1 ([3]; ± JQ1, TGFβ 0 or 15 days): significantly disrupted
- atherogenic responses and atherosclerosis (Brd4 [4]): attenuates
- TGFβ-induced pulmonary fibrotic program (mSNAI1, mFN-1, mαSMA, mCol1A1, mIL-6 mRNA in lung) (C57BL6/J mice [5]): significantly inhibited
- the EMT (Type II EMT) (hSAECs [6]; JQ1 10 μM ± TGFβ 10 ng/mL 15 days, FIG. 9A): blocks
- TGFβ-induced acquisition of elongated shape (hSAECs [6]; [10]): blocked
- TGFβ-induced stress fiber formation (hSAECs [6]; [10]): blocked
- TGFβ-induced upregulation and cytosolic redistribution of SNAI1 (hSAECs [6]; [10]): blocked
- TGFβ-induced upregulation and cytosolic redistribution of VIM (hSAECs [6]; [10]): blocked
- expression and cellular distribution of CDH1 (hSAECs [6]; [10]): maintained
- recruitment and binding of Brd4 to TNFα and E-selectin promoter elements (Brd4 [7]): inhibits
- TGFβ-induced airway fibrosis (C57BL6/J mice [8]; [11]): effectively blocked
- lung histology (Masson Trichrome) (C57BL6/J mice [8]; [11]): histologically normal
- combined Ashcroft score (C57BL6/J mice [8]; JQ1 mice with chronic TGFβ treatment vs chronic TGFβ alone (score 8), total score range 0 to 18): significantly lower
- recovery time in FRAP assays using GFP-Brd4 (GFP-Brd4): accelerates

Structure (SMILES): Cc1ccc2nc(NCCN)c3ncc(C)n3c2c1 [BMS-345541]
- TGFβ-induced enhanced mesenchymal gene expression (hSAECs [2]; IKK kinase inhibitor BMS-345541, hSAECs): inhibited
- BRD4 recruitment to EMT gene promoters (SNAI1, ZEB1, IL-6, VIM) [3, 12]: inhibited
- CDK9 recruitment to EMT gene promoters (SNAI1, ZEB1, IL-6, VIM) [3, 12]: inhibited
- RelA recruitment to EMT gene promoters (SNAI1, ZEB1, IL-6, VIM) [3, 12]: inhibited
- phospho-Ser 2 CTD RNA Pol II recruitment to EMT gene promoters (SNAI1, ZEB1, IL-6, VIM) [3, 12]: inhibited
